The series is described as follows: Human HepG2 cell viability assay in 384 well format. On the set-up: dose 125 nL, time 70.5 hour; concentration not given beside the values. In kind it is toxicity, cell-based. The settings on record: HepG2 cells, read-out: Inhibition.

For `CC(C)NC(=O)CN(C1CC1)C(C)C1CC1` (stereo unspecified), the cytotoxicity at 70.5 h was -3.55%.

For `CSC(C)(C)CNC(=O)NCc1cccc(-n2ccnc2)c1`, the cytotoxicity at 70.5 h was -12.4%.

On to `Cc1ccccc1CN(C)CC(O)COCc1ccccc1Cl` (stereo unspecified), for which the cytotoxicity at 70.5 h was found to be 21.6%.

In the case of `O=S(=O)(Cc1ccccc1)NCc1nnc2n1CCC2`, the cytotoxicity at 70.5 h was -22.1%.

Turning to `CC(=O)c1ccc(-n2c(C)cn(CCS(C)(=O)=O)c2=O)cc1`, the cytotoxicity at 70.5 h was -11.2%.

Turning to `CC(=O)c1ccc(-n2c(C)cn(CCC#N)c2=O)cc1`, the cytotoxicity at 70.5 h is 22.1%.

Regarding `Cc1cccc(N2CCN(C(=O)CCc3ccsc3)C(C)C2)n1` (stereo unspecified), the cytotoxicity at 70.5 h was -23.2%.

In the case of `CN(Cc1nnc(C2CCC2)o1)C(C(N)=O)c1cccc(F)c1` (stereo unspecified), the cytotoxicity at 70.5 h was -1.86%.

In the case of `Cc1cccc(N2CCN(C(=O)Cc3ccccc3O)C(C)C2)n1` (stereo unspecified), the cytotoxicity at 70.5 h is -1.34%.

`COCCNC(=O)NCc1cccc(-n2ccnc2)c1`: the cytotoxicity at 70.5 h was -13.7%.

With `CC(=O)c1c(F)cccc1NCC(O)C(C)(C)C` (stereo unspecified), the cytotoxicity at 70.5 h was -11.2%.

Turning to `O=C(Cn1cc(-n2cccc2)cn1)NCC1CCC1`, the cytotoxicity at 70.5 h was -10.7%.

As to `COCCCn1ccc(NS(=O)(=O)c2cc(F)c(C)cc2F)n1`, the cytotoxicity at 70.5 h was -12.2%.

Consider `COc1cccc(CC(=O)NC2CCCc3cn[nH]c32)c1` (stereo unspecified), for which the cytotoxicity at 70.5 h is -0.729%.

As for `O=S1(=O)CCN2C(=N1)Oc1ccc(Cl)cc12`, the cytotoxicity at 70.5 h was determined as 23.7%.

`Cc1cccc(N2CCN(C(=O)CC3(O)CCCC3)C(C)C2)n1` (stereo unspecified): the cytotoxicity at 70.5 h was 0.326%.

Turning to `Cc1ccc(CCCC(=O)N2CCCC(CS(N)(=O)=O)C2)s1` (stereo unspecified), the cytotoxicity at 70.5 h was -5.56%.

Consider `CC(C)(C#N)c1ccccc1CN(CCO)Cc1ccsc1`, for which the cytotoxicity at 70.5 h was -7.26%.

On to `CCOc1ccc(CN2C(=O)CC3(CCCC3)C2=O)nc1`, for which the cytotoxicity at 70.5 h is 17.6%.

Regarding `CCOc1ccc(CN2C(=O)CC(C)(C)C2=O)nc1`, the cytotoxicity at 70.5 h stood at 2.3%.

For the molecule `O=C(CNC(=O)C1CC1)NCC1CCCC1`, the cytotoxicity at 70.5 h is 4.06%.

On to `CCC1CN(C(=O)COc2ccc(C(=O)NC3CC3)cc2)CCO1` (stereo unspecified), for which the cytotoxicity at 70.5 h was -2.32%.

Regarding `CN(C)C(=O)C1CN(Cc2ccc(C#N)cc2F)c2ccccc2O1` (stereo unspecified), the cytotoxicity at 70.5 h is -0.947%.

Take `CC(Cn1cccn1)NC(=O)NCCCN1CCc2ccccc2C1` (stereo unspecified): the cytotoxicity at 70.5 h stood at 14.2%.

With `CC(C)(C)OC(=O)N1CSC[C@@H]1C(=O)NCc1ccncc1`, the cytotoxicity at 70.5 h was -2.13%.

Regarding `CC(CC(=O)Nc1ncn(CC(=O)N2CCCCCC2)n1)C1CC1` (stereo unspecified), the cytotoxicity at 70.5 h was 0.138%.

On to `CC(C)(C)CC(=O)N1CSCC1C(=O)NCc1cccc(C#N)c1` (stereo unspecified), for which the cytotoxicity at 70.5 h came out at 15.4%.

As to `CCCSCC(=O)Nc1ncn(CC(=O)N2CCCCCC2)n1`, the cytotoxicity at 70.5 h was -1.09%.

`CCc1noc(CN(C)CCC(=O)Nc2ccc(Cl)cc2)n1`: the cytotoxicity at 70.5 h is -0.958%.

`CCn1c(CN2CCOC(Cn3cncn3)C2)nc2cc(F)ccc21` (stereo unspecified): the cytotoxicity at 70.5 h was determined as 0.647%.

On to `CCOc1cc(C(=O)NS(C)(=O)=O)cc(-c2ccccc2)c1OC`, for which the cytotoxicity at 70.5 h is 0.968%.

On to `CCc1cc(CNC(=O)N2Cc3ccccc3N(C)CC2C)on1` (stereo unspecified), for which the cytotoxicity at 70.5 h came out at 3.84%.

Regarding `Cc1cc(C(C)(O)CNC(=O)OC(C)(C)C)c(C)o1` (stereo unspecified), the cytotoxicity at 70.5 h was 0.912%.

With `O=S(=O)(Nc1ncccc1F)c1cc(Cl)cc2c1OCC2`, the cytotoxicity at 70.5 h amounted to 6.97%.

Turning to `CCCS(=O)(=O)NC(=O)c1ccc(CC)o1`, the cytotoxicity at 70.5 h was determined as 2.47%.

As to `CCc1ccc(CN2CCC3(CC(C(=O)NCC(C)C)=NO3)C2)o1` (stereo unspecified), the cytotoxicity at 70.5 h was -7.77%.

For the molecule `O=C(Cc1ccccc1)N1CCC2(CC1)CC(Nc1cnccn1)CO2` (stereo unspecified), the cytotoxicity at 70.5 h is -8.13%.

As to `c1ccn(Cc2nnc3n2CCCN(c2cnccn2)C3)c1`, the cytotoxicity at 70.5 h was 16%.

`CC(C)CS(=O)(=O)N1C[C@H]2C[C@H](C(=O)N3CCOCC3)[C@@H](C1)O2`: the cytotoxicity at 70.5 h came to 13.9%.

`Cc1cccc(CN2CCc3onc(CN(C)C)c3C2)n1`: the cytotoxicity at 70.5 h is 0.439%.

For `NC(=O)c1nc2c(s1)CCN(C(=O)Nc1ccccc1)CC2`, the cytotoxicity at 70.5 h is 9.18%.

Take `O=C(c1cscn1)N1CCc2ncnc(-c3ccncc3)c2CC1`: the cytotoxicity at 70.5 h was -2.35%.

For the molecule `O=C1C[C@H]2[C@H](CCN2C(=O)c2ccno2)N1CC1CC1`, the cytotoxicity at 70.5 h is -4.81%.

For `CCN(CC)C(=O)c1nc2c(s1)CCN(C(=O)Nc1ccccc1)CC2`, the cytotoxicity at 70.5 h is 5.97%.

As for `O=C1N(Cc2cccc(F)c2)CCC12CCCN(c1ncc(F)cn1)C2` (stereo unspecified), the cytotoxicity at 70.5 h is -5.64%.

Consider `CS(=O)(=O)NC[C@H]1OC[C@@H]2CN(Cc3cccnc3)CC[C@@H]21`, for which the cytotoxicity at 70.5 h was -2.64%.

In the case of `CN(C)Cc1noc2c1CN(Cc1ccc[nH]1)CC2`, the cytotoxicity at 70.5 h is -1.45%.

For `CC(C)n1nc(CN2CCCC2=O)c2c1CN(C(=O)c1ccc[nH]1)C2`, the cytotoxicity at 70.5 h was -5.63%.

Consider `Cc1nc(Cn2c3c(ccc2=O)CC(N)CC3)cs1` (stereo unspecified), for which the cytotoxicity at 70.5 h was determined as 4.04%.

For the molecule `Cc1noc([C@H]2CC[C@@H]3[C@@H](CCN3c3ncccn3)O2)n1`, the cytotoxicity at 70.5 h is -6.01%.

For `O=C1CCCN1Cc1nnc2n1CCN(Cc1ccco1)C2`, the cytotoxicity at 70.5 h is 2.02%.

Turning to `CN1C(=O)C(c2cccnc2)CC12CCN(Cc1nccs1)CC2` (stereo unspecified), the cytotoxicity at 70.5 h was 1.71%.

Turning to `CCO[C@H]1CC[C@H]2[C@H]1OCCN2C(=O)c1nn(C)c2ccccc12`, the cytotoxicity at 70.5 h worked out at 0.53%.

As to `COCCN1CCC2(CC1)CC(c1cccnc1)C(=O)N2C` (stereo unspecified), the cytotoxicity at 70.5 h amounted to 1.48%.

Turning to `CO[C@@H]1CC[C@H]2[C@H]1OCCN2C(=O)c1nn(C)c2ccccc12`, the cytotoxicity at 70.5 h was 20.6%.

Consider `CN(C)C1CCN(C(=O)c2n[nH]c3c2CCN(CC2CCC2)C3)CC1`, for which the cytotoxicity at 70.5 h was determined as 14.2%.

Turning to `CC(=O)N1CCC2(CCCN(Cc3ccc(Cl)c(C(F)(F)F)c3)C2)C1` (stereo unspecified), the cytotoxicity at 70.5 h is -5.25%.

Turning to `O=C1CC2(CCN(Cc3ccoc3)C2)CN1c1ccc2c(c1)OCO2` (stereo unspecified), the cytotoxicity at 70.5 h came to 3.34%.

In the case of `COCC(=O)N1CC[C@@H](O)[C@@H]1Cc1ccccc1`, the cytotoxicity at 70.5 h is 5.48%.

For the molecule `CC(=O)N1CCC2(CC1)CNc1c(F)cccc12`, the cytotoxicity at 70.5 h is -6.53%.

`COCC(=O)N1CCc2ccccc2C12CCNCC2`: the cytotoxicity at 70.5 h stood at 18.5%.

As for `CCOC(=O)N1CCc2ccccc2C12CCNCC2`, the cytotoxicity at 70.5 h was -2.47%.

As to `O=C(C1CC1)N1CCc2ccccc2C12CCNCC2`, the cytotoxicity at 70.5 h is -1.81%.

Take `C1CCC(CN2Cc3nnn(CC4CC4)c3C(COCC3CC3)C2)C1` (stereo unspecified): the cytotoxicity at 70.5 h was -8.05%.

As for `O=C(N1CCOCC1)[C@@]12CCO[C@@H]1CCN(Cc1cccc(F)c1)C2`, the cytotoxicity at 70.5 h is -8.34%.

As for `Cn1ccnc1CN1CCC2(CC1)CCN(c1ccccc1)C2=O`, the cytotoxicity at 70.5 h came out at 27.2%.

As for `Cc1cccc(CN2CCc3onc(CO)c3C2)n1`, the cytotoxicity at 70.5 h is 5.71%.

`O=C1N(Cc2cccnc2)CCC12CCCN(c1ncc(F)cn1)C2` (stereo unspecified): the cytotoxicity at 70.5 h is -3.96%.

Regarding `O=C([C@@H]1CC[C@@H]2[C@@H](CCN2c2ccncn2)O1)N1CCCCO1`, the cytotoxicity at 70.5 h was -0.768%.

In the case of `Cn1ccc(C(=O)N2CCC3(CCN3c3ncccn3)C2)n1` (stereo unspecified), the cytotoxicity at 70.5 h is -1.24%.

Turning to `CCc1cnc(N2CC[C@H]3[C@@H]2CCC(=O)N3c2ccccc2)nc1`, the cytotoxicity at 70.5 h is 14.1%.

Turning to `c1csc(CN2C[C@H](OCC3CC3)[C@H]3COC[C@H]32)n1`, the cytotoxicity at 70.5 h is -3.74%.

For the molecule `CN(C)C(=O)CN1CCOCC2(C1)CN(c1ncc(F)cn1)CCO2` (stereo unspecified), the cytotoxicity at 70.5 h is -10.2%.

With `O=C1CC[C@H]2[C@H](CCN2c2ncccn2)N1c1ccccc1`, the cytotoxicity at 70.5 h was -10.3%.

Consider `CN(C)C(=O)CN1CCOCC2(CCN(c3ncc(F)cn3)CC2)C1`, for which the cytotoxicity at 70.5 h is -6.93%.

With `CN(C)C(=O)CO[C@@H]1CC[C@H]2[C@H]1OCCN2c1ncc(F)cn1`, the cytotoxicity at 70.5 h is -6.35%.

Consider `Cc1noc([C@@H]2C[C@@H]3CCN(c4nnc(C)s4)C[C@H]3O2)n1`, for which the cytotoxicity at 70.5 h is -11.6%.

`Fc1cnc(N2CCO[C@H]3[C@H](OCC4CCOCC4)CC[C@@H]32)nc1`: the cytotoxicity at 70.5 h was -9.91%.

For `Fc1cnc(N2C[C@@H](OCC3CCOCC3)[C@H]3OCCC[C@H]32)nc1`, the cytotoxicity at 70.5 h is -7.94%.

With `Cc1noc([C@@H]2CC[C@@H]3[C@@H](CCN3c3nnc(C)s3)O2)n1`, the cytotoxicity at 70.5 h is -8.18%.

As for `Cc1cncc(C(=O)N2C[C@@H]3CN(S(C)(=O)=O)CCO[C@@H]3C2)c1`, the cytotoxicity at 70.5 h was found to be 19.6%.

With `CC(C)OCc1nn(C)c2c1CCN(CC1CC1)C2`, the cytotoxicity at 70.5 h was -2.45%.

Regarding `O=C(NC1CCC1)[C@H]1C[C@@H]2CN(CC3CC3)C[C@H]1O2`, the cytotoxicity at 70.5 h was -0.535%.

With `CNC(=O)[C@@]12CCO[C@@H]1CCN(Cc1ccc3c(c1)OCO3)C2`, the cytotoxicity at 70.5 h worked out at 9.37%.

Turning to `c1coc(CN2CCCn3c(nnc3Cn3cccc3)C2)c1`, the cytotoxicity at 70.5 h was -3.91%.

Take `O=C1CC2(CCN(CC3CC3)C2)CN1c1ccc2c(c1)OCO2` (stereo unspecified): the cytotoxicity at 70.5 h amounted to 3.77%.

In the case of `COCC1CN(c2ccc(C)nn2)Cc2cnn(C)c21` (stereo unspecified), the cytotoxicity at 70.5 h is -7.14%.

In the case of `O=S(=O)(C1CC1)N1CCC2(CC1)CN(Cc1ccccn1)CCO2`, the cytotoxicity at 70.5 h worked out at 14.8%.

Consider `Cc1cnc(N2CCO[C@@H]3CC(COCc4cccnc4)C[C@H]32)nc1` (stereo partly specified), for which the cytotoxicity at 70.5 h was -0.9%.

Take `c1csc(CN2Cc3nc(CN4CCCC4)oc3C2)c1`: the cytotoxicity at 70.5 h is -1.36%.

For the molecule `Cc1nc(Cn2c3c(ccc2=O)CC(NC(C)C)CC3)cs1` (stereo unspecified), the cytotoxicity at 70.5 h was -9.3%.

Consider `Fc1cccc(CN2C[C@@H]3CN(c4ncccn4)C[C@@H]3C2)c1`, for which the cytotoxicity at 70.5 h is -3.5%.

With `CCc1cnc(N2CC[C@H]3[C@@H]2CCC(=O)N3c2cccnc2)nc1`, the cytotoxicity at 70.5 h was -7.03%.

Take `CC(C)n1nc(CN2CCCC2)c2c1CN(CC1CC1)CC2`: the cytotoxicity at 70.5 h is -1.54%.

Take `Cc1cccc(CN2CCC3(CC2)CC(c2cccnc2)C(=O)N3C)n1` (stereo unspecified): the cytotoxicity at 70.5 h came to 15.6%.

`c1ccc(OCC2C[C@@H]3[C@@H](C2)OCCN3CC2CCOCC2)nc1` (stereo partly specified): the cytotoxicity at 70.5 h is -0.766%.

(Values after ChEMBL document CHEMBL3507680, “University of Dundee, Gates Library screen for HepG2 cell viability”.)
